These are literature values, as cited in patent US20030082168A1, “Compositions and methods for facilitating weight loss” (priority 2001, published 2003).

In data set [1] the test system is intercapsular brown adipose tissue (IBAT). The note with it: caffeine alone.
The conditions of data set [2]: for Weight of control group above CLA group: after 6 weeks.
The conditions of data set [3]: 2% CLA in diet; P=0.01.

Like-named read-outs stand apart in the source and are kept apart here.

Consider `Cn1c(=O)c2c(ncn2C)n(C)c1=O` [Caffeine], for which the IBAT oxygen uptake result in data set [1] is “does not increase”.

Turning to Conjugated linoleic acid [CLA], the “Weight of control group above CLA group” value was 5.7 g in data set [2] (high-fat diet, P<0.0001) and 3.2 g in data set [2] (low-fat diet, P<0.005). Moreover, the “Energy intake, growth rate, adipose depot weight and carcass lipid” value in data set [2] (independent of diet composition) is recorded as “significantly reduced”. Further, in data set [2] (mouse, in vivo), the Metabolic rate entry is on record as “significantly increased”. The Nighttime respiratory quotient result in data set [2] (mouse, in vivo) is “decreased”. For the same compound, the “Subcutaneous fat, change vs sunflower oil” value in data set [3] is given as −6.8%.
